Measured values as given in patent US9617283B2, “Bicyclic heterocycle compounds and their uses in therapy” (ASTEX THERAPEUTICS LIMITED, priority 2012, dated 2017).
Counter-ions that a name gives are not always drawn. Like-named read-outs stand apart in the source and are kept apart here.

Tested on: EVSA-T (human breast carcinoma)
Experiment: Anti-proliferative activity, Alamar Blue assay, EVSA-T
Type: cell-based
[1] = Homo sapiens; EVSA-T cell line, 72 hours, Alamar Blue; read-out: EVSA-T prolif
[2] = Homo sapiens, EVSA-T; read-out: EC50 in EVSA-T cell line assays
[3] = Homo sapiens, EVSA-T, 72 h, EVSA-T cell line, 72 hours, Alamar Blue; read-out: EVSA-T prolif
[4] = EVSA-T cell line, 72 hours, Alamar Blue; dihydrochloride; read-out: EVSA-T prolif

C[C@@H]1CN(CC(=O)N2CC(C)(C)c3nnc(Cc4ccc(F)cc4F)cc32)[C@@H](CN2Cc3c(F)cccc3C2=O)CN1 [Example 104, 2-{[(2R,5R)-1-(2-{3-[(2,4-Difluorophenyl)methyl]-7,7-dimethyl-5H,6H,7H-pyrrolo[3,2-c]pyridazin-5-yl}-2-oxoethyl)-5-methylpiperazin-2-yl]methyl}-4-fluoro-2,3-dihydro-1H-isoindol-1-one dihydrochloride]
EC50 [1]: 0.12 nM

CCCC(F)(F)c1cc2c(nn1)C(C)(C)CN2C(=O)CN1C[C@@H](C)NC[C@@H]1CN1Cc2ncccc2C1=O [Example 67, 6-{[(2R,5R)-1-{2-[3-(1,1-Difluorobutyl)-7,7-dimethyl-5H,6H,7H-pyrrolo[3,2-c]pyridazin-5-yl]-2-oxoethyl}-5-methylpiperazin-2-yl]methyl}-5H,6H,7H-pyrrolo[3,4-b]pyridin-5-one]
EC50 [2]: < 1000 nM

C[C@@H]1CN(CC(=O)N2CC(C)(C)c3cnc(Cc4ccc(F)cc4F)cc32)[C@@H](CN2Cc3ncccc3C2=O)CN1 [Example 63, 6-{[(2R,5R)-1-(2-{6-[(2,4-Difluorophenyl)methyl]-3,3-dimethyl-1H,2H,3H-pyrrolo[3,2-c]pyridin-1-yl}-2-oxoethyl)-5-methylpiperazin-2-yl]methyl}-5H,6H,7H-pyrrolo[3,4-b]pyridin-5-one]
EC50 [2]: < 1000 nM

C[C@H]1CC(=O)N(C[C@H]2CN[C@H](C)CN2CC(=O)N2CC(C)(C)c3nnc(Cc4ccc(F)cc4F)cc32)C1 [Example 46, (4S)-1-{[(2R,5R)-1-(2-{3-[(2,4-Difluorophenyl)methyl]-7,7-dimethyl-5H,6H,7H-pyrrolo[3,2-c]pyridazin-5-yl}-2-oxoethyl)-5-methylpiperazin-2-yl]methyl}-4-methylpyrrolidin-2-one dihydrochloride]
EC50 [3]: 2.3 nM
EC50 [2]: < 1000 nM

C[C@@H]1CN(CC(=O)N2CC(C)(C)c3nnc(Cc4ccc(F)cc4F)cc32)[C@@H](CN2Cc3ccc(F)cc3C2=O)CN1 [Example 93, 2-{[(2R,5R)-1-(2-{3-[(2,4-Difluorophenyl)methyl]-7,7-dimethyl-5H,6H,7H-pyrrolo[3,2-c]pyridazin-5-yl}-2-oxoethyl)-5-methylpiperazin-2-yl]methyl}-6-fluoro-2,3-dihydro-1H-isoindol-1-one dihydrochloride]
EC50 [1]: 0.5 nM

C[C@@H]1CN(CC(=O)N2CC(C)(C)c3nnc(Cc4ccc(F)cc4F)cc32)[C@@H](CN2Cc3cc(C#N)ccc3C2=O)CN1 [Example 109, 2-{[(2R,5R)-1-(2-{3-[(2,4-Difluorophenyl)methyl]-7,7-dimethyl-5H,6H,7H-pyrrolo[3,2-c]pyridazin-5-yl}-2-oxoethyl)-5-methylpiperazin-2-yl]methyl}-1-oxo-2,3-dihydro-1H-isoindole-5-carbonitrile dihydrochloride]
EC50 [1]: 0.64 nM

C[C@@H]1CN(CC(=O)N2CC(C)(C)c3nnc(Cc4ccc(F)cc4)cc32)[C@@H](CN2C[C@H](C)OCC2=O)CN1 [Example 53, (6S)-4-{[(2R,5R)-1-(2-{3-[(4-Fluorophenyl)methyl]-7,7-dimethyl-5H,6H,7H-pyrrolo[3,2-c]pyridazin-5-yl}-2-oxoethyl)-5-methylpiperazin-2-yl]methyl}-6-methylmorpholin-3-one]
EC50 [2]: < 1000 nM

C[C@@H]1CN(CC(=O)N2CC(C)(C)c3nnc(Cc4ccc(F)cc4F)cc32)[C@@H](CN2C[C@H](C)OCC2=O)CN1 [Example 52, (6S)-4-{[(2R,5R)-1-(2-{3-[(2,4-Difluorophenyl)methyl]-7,7-dimethyl-5H,6H,7H-pyrrolo[3,2-c]pyridazin-5-yl}-2-oxoethyl)-5-methylpiperazin-2-yl]methyl}-6-methylmorpholin-3-one]
EC50 [2]: < 1000 nM

C[C@@H]1CN(CC(=O)N2CC(C)(C)c3ncc(Cc4ccc(F)cc4)cc32)[C@@H](CN2C(=O)[C@@H]3CC[C@H]2C3)CN1 [Example 8, (1S,4R)-2-{[(2R,5R)-1-(2-{6-[(4-Fluorophenyl)methyl]-3,3-dimethyl-1H,2H,3H-pyrrolo[3,2-b]pyridin-1-yl}-2-oxoethyl)-5-methylpiperazin-2-yl]methyl}-2-azabicyclo[2.2.1]heptan-3-one dihydrochloride]
EC50 [3]: 7.1 nM
EC50 [2]: < 1000 nM

CCCC(F)(F)c1cc2c(cn1)C(C)(C)CN2C(=O)CN1C[C@@H](C)NC[C@@H]1CN1CC(CC)OCC1=O (single isomer, unassigned) [Example 89, 4-{[(2R,5R)-1-{2-[6-(1,1-Difluorobutyl)-3,3-dimethyl-1H,2H,3H-pyrrolo[3,2-c]pyridin-1-yl]-2-oxoethyl}-5-methylpiperazin-2-yl]methyl}-(R or S)-6-ethylmorpholin-3-one dihydrochloride]
EC50 [4]: 6.5 nM

C[C@@H]1CN(CC(=O)N2CC(C)(C)c3ncc(Cc4ccc(F)cc4)cc32)[C@@H](CN2C[C@H](C)N(C)CC2=O)CN1 [Example 43, (5S)-1-{[(2R,5R)-1-(2-{6-[(4-Fluorophenyl)methyl]-3,3-dimethyl-1H,2H,3H-pyrrolo[3,2-b]pyridin-1-yl}-2-oxoethyl)-5-methylpiperazin-2-yl]methyl}-4,5-dimethylpiperazin-2-one dihydrochloride]
EC50 [3]: 12 nM
EC50 [2]: < 1000 nM

CCC1CC(=O)N(C[C@H]2CN[C@H](C)CN2CC(=O)N2CC(C)(C)c3cnc(Cc4ccc(F)cc4F)cc32)C1 (single isomer, unassigned) [Example 87, (4R or 4S)-1-{[(2R,5R)-1-(2-{6-[(2,4-Difluorophenyl)methyl]-3,3-dimethyl-1H,2H,3H-pyrrolo[3,2-c]pyridin-1-yl}-2-oxoethyl)-5-methylpiperazin-2-yl]methyl}-4-ethylpyrrolidin-2-one dihydrochloride]
EC50 [4]: 1.2 nM

C[C@@H]1CN(CC(=O)N2CC(C)(C)c3ncc(Cc4ccc(F)cc4)cc32)[C@@H](CN2Cc3ncccc3C2=O)CN1 [Example 15, 6-{[(2R,5R)-1-(2-{6-[(4-Fluorophenyl)methyl]-3,3-dimethyl-1H,2H,3H-pyrrolo[3,2-b]pyridin-1-yl}-2-oxoethyl)-5-methylpiperazin-2-yl]methyl}-5H,6H,7H-pyrrolo[3,4-b]pyridin-5-onne dihydrochloride]
EC50 [1]: 0.63 nM

C[C@@H]1CN(CC(=O)N2CC(C)(C)c3nnc(Cc4ccc(F)cc4F)cc32)[C@@H](CN2Cc3ccccc3C2=O)CN1 [Example 79, 2-{[(2R,5R)-1-(2-{3-[(2,4-Difluorophenyl)methyl]-7,7-dimethyl-5H,6H,7H-pyrrolo[3,2-c]pyridazin-5-yl}-2-oxoethyl)-5-methylpiperazin-2-yl]methyl}-2,3-dihydro-1H-isoindol-1-one dihydrochloride]
EC50 (Homo sapiens, EVSA-T, read-out: EC50 in EVSA-T cell line assays): < 1000 nM
EC50 [1]: 0.2 nM

C[C@@H]1CN(CC(=O)N2CC(C)(C)c3nnc(Cc4ccc(F)cc4)cc32)[C@@H](CN2Cc3ncccc3C2=O)CN1 [Example 65, 6-{[(2R,5R)-1-(2-{3-[(4-Fluorophenyl)methyl]-7,7-dimethyl-5H,6H,7H-pyrrolo[3,2-c]pyridazin-5-yl}-2-oxoethyl)-5-methylpiperazin-2-yl]methyl}-5H,6H,7H-pyrrolo[3,4-b]pyridin-5-one]
EC50 [2]: < 1000 nM

C[C@@H]1CN(CC(=O)N2CC(C)(C)c3ncc(Cc4ccc(F)cc4F)cc32)[C@@H](CN2Cc3ccccc3C2=O)CN1 [Example 76, 2-{[(2R,5R)-1-(2-{6-[(2,4-Difluorophenyl)methyl]-3,3-dimethyl-1H,2H,3H-pyrrolo[3,2-b]pyridin-1-yl}-2-oxoethyl)-5-methylpiperazin-2-yl]methyl}-2,3-dihydro-1H-isoindol-1-one dihydrochloride]
EC50 [1]: 2.5 nM

C[C@@H]1CN(CC(=O)N2CC(C)(C)c3nnc(Cc4ccc(F)cc4F)cc32)[C@@H](CN2Cc3ccc(C#N)cc3C2=O)CN1 [Example 114, 2-{[(2R,5R)-1-(2-{3-[(2,4-Difluorophenyl)methyl]-7,7-dimethyl-5H,6H,7H-pyrrolo[3,2-c]pyridazin-5-yl}-2-oxoethyl)-5-methylpiperazin-2-yl]methyl}-3-oxo-2,3-dihydro-1H-isoindole-5-carbonitrile dihydrochloride]
EC50 [1]: 1.4 nM

C[C@@H]1CN(CC(=O)N2CC(C)(C)c3nnc(Cc4ccc(F)cc4F)cc32)[C@@H](CN2Cc3cc(F)ccc3C2=O)CN1 [Example 103, 2-{[(2R,5R)-1-(2-{3-[(2,4-Difluorophenyl)methyl]-7,7-dimethyl-5H,6H,7H-pyrrolo[3,2-c]pyridazin-5-yl}-2-oxoethyl)-5-methylpiperazin-2-yl]methyl}-5-fluoro-2,3-dihydro-1H-isoindol-1-one dihydrochloride]
EC50 [1]: 0.18 nM

CCC1CC(=O)N(C[C@H]2CN[C@H](C)CN2CC(=O)N2CC(C)(C)c3cnc(Cc4ccc(F)cc4F)cc32)C1 (single isomer, unassigned) [Example 83, (4R or 4S)-1-{[(2R,5R)-1-(2-{6-[(2,4-Difluorophenyl)methyl]-3,3-dimethyl-1H,2H,3H-pyrrolo[3,2-c]pyridin-1-yl}-2-oxoethyl)-5-methylpiperazin-2-yl]methyl}-4-ethylpyrrolidin-2-one dihydrochloride]
EC50 [3]: 1.1 nM
EC50 [2]: < 1000 nM

CCCC(F)(F)c1cc2c(cn1)C(C)(C)CN2C(=O)CN1C[C@@H](C)NC[C@@H]1CN1CC(CC)OCC1=O (single isomer, unassigned) [Example 88, 4-{[(2R,5R)-1-{2-[6-(1,1-Difluorobutyl)-3,3-dimethyl-1H,2H,3H-pyrrolo[3,2-c]pyridin-1-yl]-2-oxoethyl}-5-methylpiperazin-2-yl]methyl}-(R or S)-6-ethylmorpholin-3-one dihydrochloride]
EC50 [4]: 14 nM
EC50 [2]: < 1000 nM

COC[C@@H]1CN(C[C@H]2CN[C@H](C)CN2CC(=O)N2CC(C)(C)c3nnc(Cc4ccc(F)cc4F)cc32)C(=O)CO1 [Example 101, (6S)-4-{[(2R,5R)-1-(2-{3-[(2,4-Difluorophenyl)methyl]-7,7-dimethyl-5H,6H,7H-pyrrolo[3,2-c]pyridazin-5-yl}-2-oxoethyl)-5-methylpiperazin-2-yl]methyl}-6-(methoxymethyl)morpholin-3-one dihydrochloride]
EC50 [3]: 25 nM
EC50 [2]: < 1000 nM
